The series relates to CCRIS mutagenicity, Ames/micronucleus/aberration tests. The series can be described thus: CCRIS mutagenicity studies.
The mark [1] stands for this setting: Test System: AMES SALMONELLA TYPHIMURIUM, Strain/Indicator: TA98, Metabolic Activation: NONE, Method: STANDARD PLATE.
The mark [2] stands for this setting: Test System: AMES SALMONELLA TYPHIMURIUM, Strain/Indicator: TA98, Metabolic Activation: RAT, LIVER, S-9, AROCLOR 1254, Method: STANDARD PLATE.
The mark [3] stands for this setting: Test System: AMES SALMONELLA TYPHIMURIUM, Strain/Indicator: TA100, Metabolic Activation: NONE, Method: STANDARD PLATE.
Setting [4] is: Test System: AMES SALMONELLA TYPHIMURIUM, Strain/Indicator: TA98, Metabolic Activation: NONE, Method: PREINCUBATION
Where [5] appears, read: Test System: AMES SALMONELLA TYPHIMURIUM, Strain/Indicator: TA100, Metabolic Activation: NONE, Method: PREINCUBATION
[6] abbreviates: Test System: AMES SALMONELLA TYPHIMURIUM, Strain/Indicator: TA1535, Metabolic Activation: NONE, Method: PREINCUBATION

The structures appear in SMILES notation. Calls of active or inactive are those of the source. No rule for the calls is given here.

Regarding `C1=CC2OC2c2ccc3c4c5c(cccc5cc3c21)C=C4` (stereo not drawn), the mutagenic call was “inactive; negative” under setting [1]; “active; positive” (Test System: AMES SALMONELLA TYPHIMURIUM, Strain/Indicator: TA98, Metabolic Activation: RAT, LIVER, S-9, AROCLOR 1254 (0.4, 0.8, 1.15 OR 1.5 MG/PLATE), Method: STANDARD PLATE); “active; positive” under setting [2].
Turning to `N#CCCl`, the mutagenic call is “inactive; negative” under setting [1]; “inactive; negative” under setting [2]; “inactive; negative” (Test System: AMES SALMONELLA TYPHIMURIUM, Strain/Indicator: TA100, Metabolic Activation: NONE, Method: FLUCTUATION TEST); “inactive; negative” under setting [3]; “active; positive” (Test System: AMES SALMONELLA TYPHIMURIUM, Strain/Indicator: TA100, Metabolic Activation: RAT, LIVER, S-9, AROCLOR 1254, Method: FLUCTUATION TEST); “inactive; negative” (Test System: AMES SALMONELLA TYPHIMURIUM, Strain/Indicator: TA100, Metabolic Activation: RAT, LIVER, S-9, AROCLOR 1254, Method: STANDARD PLATE). In addition, the mutagenic call (Test System: AMES SALMONELLA TYPHIMURIUM, Strain/Indicator: TA1535, Metabolic Activation: NONE, Method: STANDARD PLATE) was “inactive; negative” and the mutagenic call (Test System: AMES SALMONELLA TYPHIMURIUM, Strain/Indicator: TA1535, Metabolic Activation: RAT, LIVER, S-9, AROCLOR 1254, Method: STANDARD PLATE) is “inactive; negative”.
Consider `C=CC(O)CCCCC` (stereo not drawn), for which the mutagenic call runs as follows: (Test System: CHINESE HAMSTER V-79, Strain/Indicator: V-79 (HPRT)/6-THIOGUANINE, Metabolic Activation: NONE, Method: STANDARD PLATE) “inactive; negative”; (Test System: CHINESE HAMSTER V-79, Strain/Indicator: V-79 (HPRT)/6-THIOGUANINE, Metabolic Activation: RAT LIVER S-9, Method: STANDARD PLATE) “inactive; negative”.
With `Clc1ccc(-c2ccccc2)cc1`, the mutagenic call was “inactive; negative” (End Point: In vitro micronucleus, Test System: Chinese hamster lung fibroblasts (V79 cells), Metabolic Activation: None); “inactive; negative (2-fold increase in mutant frequency for 4-chlorobiphenyl and its metab” (End Point: In vivo mutagenicity, Test System: Lung, Species: Rat, Strain/Sex: Big Blue/male, Route: Intraperitoneal); “inactive; negative. study examines mutagenicity of metabolites synthesized in lab and iden” (Test System: Chinese hamster lung fibroblasts, Strain/Indicator: V79 (HPRT)/6-thioguanine, Metabolic Activation: None, Method: Standard plate).
With `CN[C@@H]1[C@@H](O)[C@@H](O[C@@H]2[C@@H](O)[C@H](O[C@H]3O[C@H](CN)[C@@H](O)[C@H](O)[C@H]3O)[C@@H](N)C[C@H]2NC(=O)[C@@H](O)CN)OC[C@]1(C)O`, the mutagenic call was “inactive; negative” under setting [4]; “inactive; negative” under setting [5]; “inactive; negative” under setting [6]; “inactive; negative” (Test System: E. COLI, Strain/Indicator: WP2 UVRA, Metabolic Activation: NONE, Method: PREINCUBATION).
Regarding `O=C1C=C(S(=O)(=O)O)c2ccccc2C1=O`, the mutagenic call reads like this: (Test System: AMES SALMONELLA TYPHIMURIUM, Strain/Indicator: TA97, Metabolic Activation: NONE, Method: PREINCUBATION) “inactive; negative”; (Test System: AMES SALMONELLA TYPHIMURIUM, Strain/Indicator: TA97, Metabolic Activation: RAT, LIVER, S-9, PHENOBARBITAL AND 5,6-BENZOFLAVONE, Method: PREINCUBATION) “inactive; negative”; under setting [4], “inactive; negative”; (Test System: AMES SALMONELLA TYPHIMURIUM, Strain/Indicator: TA98, Metabolic Activation: RAT, LIVER, S-9, PHENOBARBITAL AND 5,6-BENZOFLAVONE, Method: PREINCUBATION) “inactive; negative”; under setting [5], “active; positive”; (Test System: AMES SALMONELLA TYPHIMURIUM, Strain/Indicator: TA100, Metabolic Activation: RAT, LIVER, S-9, PHENOBARBITAL AND 5,6-BENZOFLAVONE, Method: PREINCUBATION) “inactive; negative”. In addition, the mutagenic call was “inactive; negative” (Test System: AMES SALMONELLA TYPHIMURIUM, Strain/Indicator: TA102, Metabolic Activation: NONE, Method: PREINCUBATION); “inactive; negative” (Test System: AMES SALMONELLA TYPHIMURIUM, Strain/Indicator: TA102, Metabolic Activation: RAT, LIVER, S-9, PHENOBARBITAL AND 5,6-BENZOFLAVONE, Method: PREINCUBATION); “active; positive” (Test System: AMES SALMONELLA TYPHIMURIUM, Strain/Indicator: TA104, Metabolic Activation: NONE, Method: PREINCUBATION); “inactive; negative” (Test System: AMES SALMONELLA TYPHIMURIUM, Strain/Indicator: TA104, Metabolic Activation: RAT, LIVER, S-9, PHENOBARBITAL AND 5,6-BENZOFLAVONE, Method: PREINCUBATION); “inactive; negative” under setting [6]; “inactive; negative” (Test System: AMES SALMONELLA TYPHIMURIUM, Strain/Indicator: TA1535, Metabolic Activation: RAT, LIVER, S-9, PHENOBARBITAL AND 5,6-BENZOFLAVONE, Method: PREINCUBATION). In addition, the mutagenic call (Test System: AMES SALMONELLA TYPHIMURIUM, Strain/Indicator: TA1537, Metabolic Activation: NONE, Method: PREINCUBATION) is “inactive; negative”; the mutagenic call (Test System: AMES SALMONELLA TYPHIMURIUM, Strain/Indicator: TA1537, Metabolic Activation: RAT, LIVER, S-9, PHENOBARBITAL AND 5,6-BENZOFLAVONE, Method: PREINCUBATION) is “inactive; negative”; the mutagenic call (Test System: AMES SALMONELLA TYPHIMURIUM, Strain/Indicator: TA1538, Metabolic Activation: NONE, Method: PREINCUBATION) is “inactive; negative”; the mutagenic call (Test System: AMES SALMONELLA TYPHIMURIUM, Strain/Indicator: TA1538, Metabolic Activation: RAT, LIVER, S-9, PHENOBARBITAL AND 5,6-BENZOFLAVONE, Method: PREINCUBATION) is “inactive; negative”; the mutagenic call (Test System: AMES SALMONELLA TYPHIMURIUM, Strain/Indicator: TA2637, Metabolic Activation: NONE, Method: PREINCUBATION) is “active; positive”; the mutagenic call (Test System: AMES SALMONELLA TYPHIMURIUM, Strain/Indicator: TA2637, Metabolic Activation: RAT, LIVER, S-9, PHENOBARBITAL AND 5,6-BENZOFLAVONE, Method: PREINCUBATION) is “inactive; negative”.
Turning to `COC1=CC(=O)c2c(ncc3c2[nH]c2ccncc23)C1=O`, the mutagenic call (Test System: AMES SALMONELLA TYPHIMURIUM, Strain/Indicator: TA97A, Metabolic Activation: NONE, Method: STANDARD PLATE) was “active; positive”; the mutagenic call (Test System: AMES SALMONELLA TYPHIMURIUM, Strain/Indicator: TA97A, Metabolic Activation: RAT LIVER S-9, AROCLOR 1254, Method: STANDARD PLATE) was “inactive; negative”; the mutagenic call under setting [1] is “active; positive”; the mutagenic call (Test System: AMES SALMONELLA TYPHIMURIUM, Strain/Indicator: TA98, Metabolic Activation: RAT LIVER S-9, AROCLOR 1254, Method: STANDARD PLATE) was “active; positive”; the mutagenic call under setting [3] is “active; positive”; the mutagenic call (Test System: AMES SALMONELLA TYPHIMURIUM, Strain/Indicator: TA100, Metabolic Activation: RAT LIVER S-9, AROCLOR 1254, Method: STANDARD PLATE) was “active; positive”. Further, the mutagenic call runs as follows: (Test System: AMES SALMONELLA TYPHIMURIUM, Strain/Indicator: TA102, Metabolic Activation: NONE, Method: STANDARD PLATE) “active; positive”; (Test System: AMES SALMONELLA TYPHIMURIUM, Strain/Indicator: TA102, Metabolic Activation: RAT LIVER S-9, AROCLOR 1254, Method: STANDARD PLATE) “active; positive”.
With `CC[C@@]1(O)C(=O)OCc2c1cc1n(c2=O)Cc2cc3ccccc3nc2-1`, the mutagenic call (End Point: In vitro micronucleus, Test System: Human lymphoblastoid TK6 cells, Metabolic Activation: None) was “active; positive (no dose response; toxicity may play a role)”; the mutagenic call (End Point: In vivo micronucleus, Test System: Peripheral blood reticulocytes, Species: Mouse, Strain/Sex: CD2F1, Route: Oral) was “active; positive”; the mutagenic call (End Point: In vivo micronucleus, Test System: Peripheral blood reticulocytes, Species: Mouse, Strain/Sex: Muta Mouse, Route: Oral) was “active; positive”; the mutagenic call (Test System: CHINESE HAMSTER V-79, Strain/Indicator: V-79 (HPRT)/6-THIOGUANINE, Metabolic Activation: NONE) was “active; positive”; the mutagenic call (Test System: LacZ plasmid mouse (C57BL/6J transgenic), Strain/Indicator: LacZ Mutant frequency, Method: Bone marrow and liver harvested 35 days after last dose) was “inactive; negative”; the mutagenic call (Test System: LacZ transgenic mouse (Muta Mouse), Strain/Indicator: LacZ Mutant frequency, Method: Bone marrow and liver harvested 35 days after last dose) was “inactive; negative”. Also, for the setting “Test System: LacZ transgenic mouse (Muta Mouse), Strain/Indicator: LacZ Mutant frequency, Method: Liver and kidney harvested 37 days after last dose”, the mutagenic call is “inactive; negative”.

Source of the values: PubChem BioAssay AID1259407 (Chemical Carcinogenesis Research Information System (CCRIS), 2018).
